Test results from patent US10870654B2, “Pharmaceutically acceptable salts and polymorphic forms of hydrocodone benzoic acid enol ester and processes for making same” (KemPharm, Inc., priority 2013, dated 2020).
Like-named read-outs stand apart in the source and are kept apart here.

Tests used:
[1] = 37° C.; for water solubility: hydrochloride
Source text: Hydrocodone benzoic acid enol ester HCl exists in at least 6 distinct solid forms, designated herein as Forms I-V and amorphous. FIG. 1 is a scheme that depicts the general processes for converting hydrocodone benzoic acid enol ester HCl between its polymorphic forms I-V. Each polymorph has different characteristics, including solubility and stability.

[2] = RH>90% at room temperature; hydrochloride
[3] = Method: A number of experiments were performed to map out the relative stability of Forms I to V. Prior to the relative stability tests, the solids of Forms I, II and III were dried in the oven to remove surface water.

SMILES: COc1ccc2c3c1O[C@H]1C(OC(=O)c4ccccc4)=CC[C@@H]4[C@@H](C2)N(C)CC[C@@]341.Cl [Form I, hydrocodone benzoic acid enol ester hydrochloride]
- water solubility [1]: about 24 mg/mL
- stability under high humidity [2]: stable for at least two weeks
- relative stability of forms in slurry ([3]; in water or organic solvents that contain water): always the most stable

SMILES: COc1ccc2c3c1O[C@H]1C(OC(=O)c4ccccc4)=CC[C@@H]4[C@@H](C2)N(C)CC[C@@]341.Cl [Form II, hydrocodone benzoic acid enol ester hydrochloride]
- water solubility [1]: > 200 mg/mL
- water solubility relative to Form I ([1]; times higher than the solubility of Form I): 9 times
- stability under high humidity [2]: hygroscopic and unstable, and converted to Form IV
- relative stability of forms in slurry ([3]; in anhydrous organic solvents, especially at higher temperatures): the more stable one

SMILES: COc1ccc2c3c1O[C@H]1C(OC(=O)c4ccccc4)=CC[C@@H]4[C@@H](C2)N(C)CC[C@@]341.Cl [Form III, hydrocodone benzoic acid enol ester hydrochloride]
- stability under high humidity [2]: hygroscopic and unstable, and converted to Form V

SMILES: COc1ccc2c3c1O[C@H]1C(OC(=O)c4ccccc4)=CC[C@@H]4[C@@H](C2)N(C)CC[C@@]341.Cl [I + II + III, hydrocodone benzoic acid enol ester hydrochloride]
- Form after 1 day slurry ([3]; solvent Acetonitrile, 25° C.): I + traces of II
- Form after 1 day slurry ([3]; solvent IPA, 25° C.): I + II
- Form after 1 day slurry ([3]; solvent IPA, 50° C.): I + II
